Experimental data from PubChem BioAssay (NCI).
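Results reflect a 48-hour exposure of cells in 96-well plates to compound at five concentrations. TGI is the concentration that stops growth completely.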

How the values were obtained:
Experiment in all cases: DTP human tumour cell line panel, 48 h
[1] = tested on: 786-0 renal
[2] = tested on: A498 renal
[3] = tested on: A549 NSCLC
[4] = tested on: ACHN renal
[5] = tested on: BT-549 breast
[6] = tested on: CAKI-1 renal
[7] = tested on: CCRF-CEM leukemia
[8] = tested on: COLO 205 colon
[9] = tested on: DU-145 prostate
[10] = tested on: EKVX NSCLC
[11] = tested on: HCC-2998 colon
[12] = tested on: HCT-116 colon
[13] = tested on: HCT-15 colon
[14] = tested on: HL-60(TB) leukemia
[15] = tested on: HOP-62 NSCLC
[16] = tested on: HOP-92 NSCLC
[17] = tested on: HS 578T breast
[18] = tested on: HT29 colon
[19] = tested on: IGROV1 ovarian
[20] = tested on: K-562 leukemia
[21] = tested on: KM12 colon
[22] = tested on: LOX IMVI melanoma
[23] = tested on: M14 melanoma
[24] = tested on: MALME-3M melanoma
[25] = tested on: MCF7 breast
[26] = tested on: MDA-MB-231 breast
[27] = tested on: MDA-MB-435
[28] = tested on: MDA-N
[29] = tested on: MOLT-4 leukemia
[30] = tested on: NCI-H226 lung
[31] = tested on: NCI-H23 lung
[32] = tested on: NCI-H460 lung
[33] = tested on: NCI/ADR-RES ovarian
[34] = tested on: OVCAR-3 ovarian
[35] = tested on: OVCAR-5 ovarian
[36] = tested on: OVCAR-8 ovarian
[37] = tested on: PC-3 prostate
[38] = tested on: RPMI-8226 leukemia
[39] = tested on: RXF 393 renal
[40] = tested on: SF-268 CNS
[41] = tested on: SF-295 CNS
[42] = tested on: SF-539 CNS
[43] = tested on: SK-MEL-28 melanoma
[44] = tested on: SK-OV-3 ovarian
[45] = tested on: SN12C renal
[46] = tested on: SNB-19 CNS
[47] = tested on: SNB-75 CNS
[48] = tested on: SR leukemia
[49] = tested on: SW-620 colon
[50] = tested on: T-47D breast
[51] = tested on: TK-10 renal
[52] = tested on: U251 CNS
[53] = tested on: UACC-62 melanoma
[54] = tested on: UO-31 renal

Compound: O=C(CC(=O)N(C(=O)/C=C\c1ccccc1)c1ccc(Cl)cc1)N1N=C(c2ccccc2)C(N=Nc2cccc([N+](=O)[O-])c2)C1=O (centres undefined)
- TGI [1]: 19.6 µM
- TGI [2]: 35.6 µM
- TGI [3]: > 100 µM
- TGI [4]: > 100 µM
- TGI [5]: 46.9 µM
- TGI [6]: > 100 µM
- TGI [7]: 38.5 µM
- TGI [8]: 14.7 µM
- TGI [9]: 91.8 µM
- TGI [10]: > 100 µM
- TGI [11]: > 100 µM
- TGI [12]: 13.5 µM
- TGI [13]: 21.6 µM
- TGI [14]: 11.1 µM
- TGI [15]: 40.8 µM
- TGI [16]: > 100 µM
- TGI [17]: 75.1 µM
- TGI [18]: 15.2 µM
- TGI [19]: 48.6 µM
- TGI [20]: 68.6 µM
- TGI [21]: 38.7 µM
- TGI [22]: > 100 µM
- TGI [23]: > 100 µM
- TGI [24]: 44.5 µM
- TGI [25]: 28.4 µM
- TGI [26]: 37.7 µM
- TGI [27]: > 100 µM
- TGI [28]: > 100 µM
- TGI [29]: 24.7 µM
- TGI [30]: 55.9 µM
- TGI [31]: 40.2 µM
- TGI [32]: 29.5 µM
- TGI [33]: 22 µM
- TGI [34]: 6.25 µM
- TGI [35]: > 100 µM
- TGI [36]: > 100 µM
- TGI [37]: 14.4 µM
- TGI [38]: 93.4 µM
- TGI [39]: 36.9 µM
- TGI [40]: 26.2 µM
- TGI [41]: 25.2 µM
- TGI [42]: 25.8 µM
- TGI [43]: 98.1 µM
- TGI [44]: 40.7 µM
- TGI [45]: > 100 µM
- TGI [46]: > 100 µM
- TGI [47]: 29.3 µM
- TGI [48]: 14 µM
- TGI [49]: 57.9 µM
- TGI [50]: > 100 µM
- TGI [51]: 38.9 µM
- TGI [52]: 33.7 µM
- TGI [53]: 42.1 µM
- TGI [54]: > 100 µM
